{"source": "patent US20250288583A1", "about": "“Treatment of Mucus Hypersecretion” (priority 2024, published 2025)", "key": {"[1]": {"test_system": "ocular margins", "test": "Cooling duration bioassay on eyelids/ocular margins", "format": "in vivo, human", "details": "for Duration of effects on the ocular margins, on average: test concentration 1 mg/mL", "source_text": "(§1) FIG. 1. Comparison of cooling duration of various p-menthanecarboxamide analogs on philtrum skin versus ocular margins. The philtrum skin is keratinized, but the ocular margins are not. The test substances numbered 1 to 11 are: D-Ala-OiPr, Gly-OiPr, D-Ala-OEt, D-Ala-OMe, D-Ala-GlynPr, GlynPr, D-Ala-OnBu, GlynBu, GlyOEt, L-Ala-OEt, and N-Me-D-Ala-OEt, respectively. Two outliers (1 and 2) were identified as preferred embodiments because they preferentially cool the ocular margins. The nasal cavity surfaces like the ocular margins are not keratinized.\n(§2) Cooling agents have been assayed in various ways depending on intended use. For example, for the skin the test substance can be applied on philtrum skin, using descriptions of coolness on a scale of 0 to 3. For the ocular surface, the active ingredient can be applied to the closed eyelids using a wipe. In the oral cavity, drug applications are on the posterior dorsal surface of the tongue. For the oropharyngeal surface, the cooling agent may be applied as an orally disintegrating tablet. The ability of a cooling agent to antagonize a noxious stimuli may also be tested, using nociception from citric acid or chili pepper sauce. Responses are usually measured using a Visual Analog Scale with a numerical rating. For nasal responses, however, such procedures have not been standardized. Some endpoints to consider are open and comfortable breathing, the presence or absence of sniffles, and the secretion of phlegm."}, "[2]": {"target": "T1, TRPA1 (Homo sapiens, UniProt O75762)", "T1 construct": "expressed in transfected cells", "T1 sequence (O75762 whole entry, species assumed)": "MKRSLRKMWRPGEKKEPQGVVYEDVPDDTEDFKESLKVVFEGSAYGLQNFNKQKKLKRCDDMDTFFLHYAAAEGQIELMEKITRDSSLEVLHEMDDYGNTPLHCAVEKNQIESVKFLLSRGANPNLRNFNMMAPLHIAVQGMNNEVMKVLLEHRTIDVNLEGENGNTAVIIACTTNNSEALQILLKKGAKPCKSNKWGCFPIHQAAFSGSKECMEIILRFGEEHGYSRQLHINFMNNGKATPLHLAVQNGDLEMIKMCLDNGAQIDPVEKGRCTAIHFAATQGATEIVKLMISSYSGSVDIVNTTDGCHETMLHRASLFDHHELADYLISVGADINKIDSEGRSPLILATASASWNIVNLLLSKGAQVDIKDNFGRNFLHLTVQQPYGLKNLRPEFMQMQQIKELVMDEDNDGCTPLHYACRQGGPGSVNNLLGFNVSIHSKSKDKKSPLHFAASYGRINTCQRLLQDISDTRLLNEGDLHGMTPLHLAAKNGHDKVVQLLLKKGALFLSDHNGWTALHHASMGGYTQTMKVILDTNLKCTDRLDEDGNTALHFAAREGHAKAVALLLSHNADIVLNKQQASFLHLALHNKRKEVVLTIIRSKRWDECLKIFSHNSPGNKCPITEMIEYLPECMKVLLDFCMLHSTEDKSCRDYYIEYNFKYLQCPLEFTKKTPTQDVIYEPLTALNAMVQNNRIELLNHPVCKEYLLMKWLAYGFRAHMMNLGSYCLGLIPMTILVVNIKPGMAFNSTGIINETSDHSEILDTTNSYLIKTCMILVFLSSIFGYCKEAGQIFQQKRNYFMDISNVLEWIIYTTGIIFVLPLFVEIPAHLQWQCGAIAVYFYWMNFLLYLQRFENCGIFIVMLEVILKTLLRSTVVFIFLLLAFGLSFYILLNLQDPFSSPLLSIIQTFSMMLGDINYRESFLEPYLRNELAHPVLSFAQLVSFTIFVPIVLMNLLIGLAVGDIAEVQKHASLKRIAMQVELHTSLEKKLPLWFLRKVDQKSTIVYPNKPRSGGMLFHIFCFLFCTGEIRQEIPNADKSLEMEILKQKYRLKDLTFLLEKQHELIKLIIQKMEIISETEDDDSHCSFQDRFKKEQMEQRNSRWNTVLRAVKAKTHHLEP", "test": "TRPA1 specificity assay in transfected cells", "format": "cell-based", "details": "FIG. 5; mustard oil positive control"}, "[3]": {"test_system": "philtrum skin", "test": "Cooling duration bioassay on philtrum skin", "format": "in vivo, human", "source_text": "as §1, §2"}, "[4]": {"test_system": "ostiomeatal complex", "test": "Case studies: nebulized cooling agent in subjects with rhinitis and rhinosinusitis", "format": "in vivo, human", "details": "for Relief of stuffiness and breathing: NasoNeb delivery in subjects with rhinosinusitis", "source_text": "Eight subjects with rhinitis and rhinosinusitis volunteered to test cooling agents delivered with the NasoNeb® nebulizer (FIG. 3). The results were clear, robust, and evident. No statistical analysis was necessary. In a 3 to 5-day course of nebulization t.i.d., all subjects reported the ability to manage and control stuffed-up breathing in their activities. All reported comfortable sleep. The sounds of sniffling and congestion of the nose (“sniffles”), snorting, or gurgling were still present, but to a lesser degree. The subject felt it was easier to blow out liquids from the nasal cavity onto a tissue, and the volume and frequency of blowing decreased. Viscous yellow mucus was less in volume and density. The number of wipes deposited daily into a waste basket decreased by >50%. The subjects-were cheerful and enthusiastic because nasal discomfort was under control. As one subject remarked: “The stuffed-up nose problem is now history!” Severat of these cases are reported below as “Case Studies.”\nThe subject was given a NasoNeb® nebulizer (unavailable in China) and five individual bottles containing 15 mL of a 1% GlyOiPr solution (suspended in 2% Tween 80, 5% ethanol, and 92% water). They were shown how to load the NasoNeb canister with about 2 mL of liquid and activate the device for a 3-second dose into each nostril. The recommended dosage was three times a day, starting in the morning and at about 6-hour intervals, and for five days.\nThe subject agreed to using the NasoNeb nebulizer with a cooling agent. They were given a NasoNeb nebulizer and three bottles, each containing 15 ml of a 1% GlyOiPr solution (suspended in 2% Tween 80, 5% ethanol, and 92% water). They were shown how to load the NasoNeb canister with about 2 mL of liquid and activate the device for a 3-second dose into each nostril. The recommended dosage was three times a day, starting in the morning and at about 6-hour intervals, and for five days. After a 5-day trial, the subject noted a significant improvement in sleep and comfortable breathing. […] Their headaches were gone, and their appetite improved. They were advised to continue using the Nebulizer/coolant for another week and then on an as-needed basis. Their family has noticed that the subject has become less withdrawn, more engaging, and interested in their surroundings.\nThe subject volunteered for a trial with GlyOiPr. They were given a NasoNeb® machine and a plastic squeeze bottle containing 50 mL of GlyOiPr at 3 mg/mL suspended in 1% ethanol/2% polysorbate 80. They learned how to load the canister and activate the pump. Then, they were instructed to rinse their nose thoroughly first thing in the morning and then use the Nebulizer at 5 sec per nostril to deliver the solution. The procedure was to be repeated at 2 hours and 5 hours later to total three daily activations. The subject was interviewed after dosing for three days. They said breathing was much easier at night after the dosing, and they slept well. Nasal secretions were still present but less in volume. […] They were encouraged to use the Nebulizer as needed but not to exceed three daily doses. Three weeks after the start of the experiment, they reported that they were in complete control of their rhinitis. They would do a single dose at night before sleep and one in the morning when needed. They no longer felt congested, and the headaches were gone. The slimy phlegm in the nostrils was gone, and crusting was absent. Their nose felt clean. Their social life improved.\nTheir main complaint was episodes at night when they would wake up and not be able to breathe comfortably. Sleep apnea and lung disorders were ruled out, and the diagnosis was rhinosinusitis. This was confirmed by a computerized tomography scan and endoscopic examination by a qualified ENT specialist. They agreed to test the preferred embodiments GlyOnPr, GlyOiPr, D-Ala-OnPr, and D-Ala-OiPr systematically, one after the other."}}, "note": "“Also recorded” adds a separate entry of the source.", "data": [{"compound": "CC(C)OC(=O)[C@@H](C)NC(=O)[C@@H]1C[C@H](C)CC[C@H]1C(C)C", "note": "[D-Ala-OiPr, (R)-2-[((1R,2S,5R)-2-isopropyl-5-methyl-cyclohexanecarbonyl)amino]-propionic acid i-propyl ester]", "values": [{"measurement": "Eyelids/Ocular Surface", "setting": "[1]; Table 6, cooling duration, non-keratinized", "value": 360, "unit": "min"}, {"measurement": "Duration of effects on the ocular margins, on average", "setting": "[1]", "value": "~5", "unit": "h"}, {"measurement": "Response of cells transfected with TRPA1", "setting": "[2]", "value": "inactive"}, {"measurement": "Philtrum Skin", "setting": "[3]; Table 6, cooling duration, keratinized skin", "value": 34, "unit": "min"}, {"measurement": "Relief of stuffiness and breathing", "setting": "[4]", "value": "provided relief"}]}, {"compound": "CC(C)OC(=O)CNC(=O)[C@@H]1C[C@H](C)CC[C@H]1C(C)C", "note": "[GlyOiPr, [((1R,2S,5R)-2-isopropyl-5-methyl-cyclohexanecarbonyl)-amino]-acetic acid isopropyl ester]", "values": [{"measurement": "Ocular Surface", "setting": "[1]; Table 7, Gly esters", "value": 300, "unit": "min"}, {"measurement": "Duration of effects on the ocular margins, on average", "setting": "[1]", "value": "~5", "unit": "h"}, {"measurement": "Duration on the ocular surface", "setting": "[1]; test concentration increased from 1 mg/mL to 1.5 mg/mL", "value": "about 6.5 hours"}, {"measurement": "Response of cells transfected with TRPA1", "setting": "[2]", "value": "do not respond; also recorded: activates TRPM8 but not TRPV1 or TRPA1"}, {"measurement": "Philtrum Skin", "setting": "[3]; Table 7, Gly esters", "value": 27, "unit": "min"}, {"measurement": "Number of Kleenex tissues used after treatment", "setting": "[4]; GlyOiPr by NasoNeb three times a day", "value": "about five per day; also recorded: decline by half"}, {"measurement": "Relief of stuffiness and breathing", "setting": "[4]", "value": "immediate sensation of comfortable cooling in the nose and the ability to have unimpeded breathing; also recorded: provided relief"}, {"measurement": "Decrease in number of wipes used to blow the nose", "setting": "[4]; nebulization three times a day, several days", "value": "at least 50%"}]}]}
